Test results as given in patent US20170190671A1, “BIS(ARYL)CATECHOL DERIVATIVES AS HERBICIDES” (E I DU PONT DE NEMOURS AND COMPANY, priority 2014, published 2017).

Assays:
Assay type in all cases: in vivo
[1] = test system: velvetleaf (Abutilon theophrasti); experiment: Test C postemergence; details: Abutilon theophrasti, post-emergence, Postemergence, scale 0 to 100, read-out: Plant response rating, Velvetleaf
Method in brief: (§1)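 Visual ratings were made 13-15 days after treatment in the greenhouse, scored 0-100 against controls, where 100 means complete control. Treatments used a surfactant-containing non-phytotoxic solvent formulation, applied preemergence to seeds in loam-sand soil or postemergence to 2-18 cm plants (1-4 leaves) in peat-based medium.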

[2] = test system: galium (catchweed bedstraw, Galium aparine); experiment: Test C postemergence; details: Galium, post-emergence, 336 h, Postemergence, scale 0 to 100, read-out: Plant response rating, Galium
Method in brief: as §1

[3] = test system: pigweed (Amaranthus retroflexus); experiment: Test C postemergence; details: Amaranthus retroflexus, post-emergence, 336 h, Postemergence, scale 0 to 100, read-out: Plant response rating, Pigweed
Method in brief: as §1

[4] = test system: chickweed (common chickweed, Stellaria media); experiment: Test C postemergence; details: Stellaria media, post-emergence, Postemergence, scale 0 to 100, read-out: Plant response rating, Chickweed
Method in brief: as §1

[5] = test system: barnyardgrass (Echinochloa crus-galli); experiment: Test C postemergence; details: Echinochloa crus-galli, post-emergence, Postemergence, scale 0 to 100, read-out: Plant response rating, Barnyardgrass
Method in brief: as §1

[6] = test system: blackgrass (Alopecurus myosuroides); experiment: Test C postemergence; details: Alopecurus myosuroides, post-emergence, 336 h, Postemergence, scale 0 to 100, read-out: Plant response rating, Blackgrass
Method in brief: as §1

[7] = test system: lambsquarters (Chenopodium album); experiment: Test C postemergence; details: Chenopodium album, post-emergence, 336 h, Postemergence, scale 0 to 100, read-out: Plant response rating, Lambsquarters
Method in brief: as §1

[8] = test system: johnsongrass (Sorghum halepense); experiment: Test C postemergence; details: Sorghum halepense, post-emergence, 336 h, Postemergence, scale 0 to 100, read-out: Plant response rating, Johnsongrass
Method in brief: as §1

[9] = test system: Italian ryegrass (Lolium multiflorum); experiment: Test C postemergence; details: Lolium multiflorum, post-emergence, 336 h, Postemergence, scale 0 to 100, read-out: Plant response rating, Ryegrass, Italian
Method in brief: as §1

[10] = test system: oilseed rape (Brassica napus); experiment: Test C postemergence; details: Brassica napus, post-emergence, Postemergence, scale 0 to 100, read-out: Plant response rating, Oilseed Rape
Method in brief: as §1

[11] = test system: yellow nutsedge (Cyperus esculentus); experiment: Test C postemergence; details: Cyperus, post-emergence, 336 h, Postemergence, scale 0 to 100, read-out: Plant response rating, Nutsedge, Yellow
Method in brief: as §1

[12] = test system: morningglory (Ipomoea coccinea); experiment: Test C postemergence; details: Ipomoea, post-emergence, 336 h, Postemergence, scale 0 to 100, read-out: Plant response rating, Morningglory
Method in brief: as §1

[13] = test system: giant foxtail (Setaria faberii); experiment: Test C postemergence; details: Setaria faberi, post-emergence, 336 h, Postemergence, scale 0 to 100, read-out: Plant response rating, Foxtail, Giant
Method in brief: as §1

[14] = test system: corn (Zea mays); experiment: Test C postemergence; details: Zea mays, post-emergence, 336 h, Postemergence, scale 0 to 100
Method in brief: as §1

[15] = test system: ragweed (common ragweed, Ambrosia elatior); experiment: Test C postemergence; details: Ambrosia artemisiifolia, post-emergence, 336 h, Postemergence, scale 0 to 100, read-out: Plant response rating, Ragweed
Method in brief: as §1

[16] = test system: soybean (Glycine max); experiment: Test C postemergence; details: Glycine max, post-emergence, Postemergence, scale 0 to 100, read-out: Plant response rating, Soybean
Method in brief: as §1

[17] = test system: large (Lg) crabgrass (Digitaria sanguinalis); experiment: Test C postemergence; details: Digitaria sanguinalis, post-emergence, 336 h, Postemergence, scale 0 to 100, read-out: Plant response rating, Crabgrass, Large
Method in brief: as §1

[18] = test system: winter wheat (Triticum aestivum); experiment: Test C postemergence; details: Triticum aestivum, post-emergence, 336 h, Postemergence, scale 0 to 100, read-out: Plant response rating, Wheat
Method in brief: as §1

[19] = test system: oilseed rape (Brassica napus); experiment: Test C preemergence; details: Brassica napus, pre-emergence, preemergence, scale 0 to 100, read-out: Plant response rating, Oilseed Rape
Method in brief: as §1

[20] = test system: giant foxtail (Setaria faberii); experiment: Test C preemergence; details: Setaria faberi, pre-emergence, 336 h, preemergence, scale 0 to 100, read-out: Plant response rating, Foxtail, Giant
Method in brief: as §1

[21] = test system: large (Lg) crabgrass (Digitaria sanguinalis); experiment: Test C preemergence; details: Digitaria sanguinalis, pre-emergence, 336 h, preemergence, scale 0 to 100, read-out: Plant response rating, Crabgrass, Large
Method in brief: as §1

[22] = test system: winter wheat (Triticum aestivum); experiment: Test C preemergence; details: Triticum aestivum, pre-emergence, 336 h, preemergence, scale 0 to 100, read-out: Plant response rating, Wheat
Method in brief: as §1

Clc1cnc(Oc2cccc(Cl)c2Oc2ncc(Br)cn2)nc1 [Compound 17, 5-bromo-2-[2-chloro-6-[(5-chloro-2-pyrimidinyl)oxy]phenoxy]pyrimidine]
pest or weed control at 31 g/ha ([1]; 31 g ai/ha): 30% | pest or weed control at 62 g/ha ([1]; 62 g ai/ha): 35% | pest or weed control at 125 g/ha ([1]; 125 g ai/ha): 40% | pest or weed control at 250 g/ha ([1]; 250 g ai/ha): 70% | pest or weed control at 31 g/ha ([2]; 31 g ai/ha): 70% | pest or weed control at 62 g/ha ([2]; 62 g ai/ha): 80% | pest or weed control at 125 g/ha ([2]; 125 g ai/ha): 90% | pest or weed control at 250 g/ha ([2]; 250 g ai/ha): 95% | pest or weed control at 31 g/ha ([3]; 31 g ai/ha): 90% | pest or weed control at 62 g/ha ([3]; 62 g ai/ha): 95% | pest or weed control at 125 g/ha ([3]; 125 g ai/ha): 98% | pest or weed control at 250 g/ha ([3]; 250 g ai/ha): 98% | pest or weed control at 31 g/ha ([4]; 31 g ai/ha): 40% | pest or weed control at 62 g/ha ([4]; 62 g ai/ha): 70% | pest or weed control at 125 g/ha ([4]; 125 g ai/ha): 60% | pest or weed control at 250 g/ha ([4]; 250 g ai/ha): 85% | pest or weed control at 31 g/ha ([5]; 31 g ai/ha): 5% | pest or weed control at 62 g/ha ([5]; 62 g ai/ha): 5% | pest or weed control at 125 g/ha ([5]; 125 g ai/ha): 10% | pest or weed control at 250 g/ha ([5]; 250 g ai/ha): 10% | pest or weed control at 31 g/ha ([6]; 31 g ai/ha): 5% | pest or weed control at 62 g/ha ([6]; 62 g ai/ha): 5% | pest or weed control at 125 g/ha ([6]; 125 g ai/ha): 15% | pest or weed control at 250 g/ha ([6]; 250 g ai/ha): 15% | pest or weed control at 31 g/ha ([7]; 31 g ai/ha): 80% | pest or weed control at 62 g/ha ([7]; 62 g ai/ha): 70% | pest or weed control at 125 g/ha ([7]; 125 g ai/ha): 90% | pest or weed control at 250 g/ha ([7]; 250 g ai/ha): 95% | pest or weed control at 31 g/ha ([8]; 31 g ai/ha): 5% | pest or weed control at 62 g/ha ([8]; 62 g ai/ha): 5% | pest or weed control at 125 g/ha ([8]; 125 g ai/ha): 5% | pest or weed control at 250 g/ha ([8]; 250 g ai/ha): 10% | pest or weed control at 31 g/ha ([9]; 31 g ai/ha): 0% | pest or weed control at 62 g/ha ([9]; 62 g ai/ha): 0% | pest or weed control at 125 g/ha ([9]; 125 g ai/ha): 5% | pest or weed control at 250 g/ha ([9]; 250 g ai/ha): 15% | plant injury at 31 g/ha ([10]; 31 g ai/ha): 50% | plant injury at 62 g/ha ([10]; 62 g ai/ha): 50% | plant injury at 125 g/ha ([10]; 125 g ai/ha): 80% | plant injury at 250 g/ha ([10]; 250 g ai/ha): 40% | pest or weed control at 31 g/ha ([11]; 31 g ai/ha): 5% | pest or weed control at 62 g/ha ([11]; 62 g ai/ha): 5% | pest or weed control at 125 g/ha ([11]; 125 g ai/ha): 5% | pest or weed control at 250 g/ha ([11]; 250 g ai/ha): 20% | pest or weed control at 31 g/ha ([12]; 31 g ai/ha): 90% | pest or weed control at 62 g/ha ([12]; 62 g ai/ha): 90% | pest or weed control at 125 g/ha ([12]; 125 g ai/ha): 85% | pest or weed control at 250 g/ha ([12]; 250 g ai/ha): 70% | pest or weed control at 31 g/ha ([13]; 31 g ai/ha): 5% | pest or weed control at 62 g/ha ([13]; 62 g ai/ha): 15% | pest or weed control at 125 g/ha ([13]; 125 g ai/ha): 10% | pest or weed control at 250 g/ha ([13]; 250 g ai/ha): 40% | Corn plant response rating (crop injury, 0 = no effect, 100 = complete kill) at 31 g/ha ([14]; 31 g ai/ha): 5% | Corn plant response rating (crop injury, 0 = no effect, 100 = complete kill) at 62 g/ha ([14]; 62 g ai/ha): 20% | Corn plant response rating (crop injury, 0 = no effect, 100 = complete kill) at 125 g/ha ([14]; 125 g ai/ha): 20% | Corn plant response rating (crop injury, 0 = no effect, 100 = complete kill) at 250 g/ha ([14]; 250 g ai/ha): 15% | pest or weed control at 31 g/ha ([15]; 31 g ai/ha): 50% | pest or weed control at 62 g/ha ([15]; 62 g ai/ha): 45% | pest or weed control at 125 g/ha ([15]; 125 g ai/ha): 60% | pest or weed control at 250 g/ha ([15]; 250 g ai/ha): 55% | plant injury at 31 g/ha ([16]; 31 g ai/ha): 55% | plant injury at 62 g/ha ([16]; 62 g ai/ha): 80% | plant injury at 125 g/ha ([16]; 125 g ai/ha): 90% | plant injury at 250 g/ha ([16]; 250 g ai/ha): 90% | pest or weed control at 31 g/ha ([17]; 31 g ai/ha): 5% | pest or weed control at 62 g/ha ([17]; 62 g ai/ha): 5% | pest or weed control at 125 g/ha ([17]; 125 g ai/ha): 10% | pest or weed control at 250 g/ha ([17]; 250 g ai/ha): 10% | plant injury at 31 g/ha ([18]; 31 g ai/ha): 0% | plant injury at 62 g/ha ([18]; 62 g ai/ha): 0% | plant injury at 125 g/ha ([18]; 125 g ai/ha): 0% | plant injury at 250 g/ha ([18]; 250 g ai/ha): 0% | plant injury at 31 g/ha ([19]; 31 g ai/ha): 85% | plant injury at 62 g/ha ([19]; 62 g ai/ha): 90% | plant injury at 125 g/ha ([19]; 125 g ai/ha): 100% | plant injury at 250 g/ha ([19]; 250 g ai/ha): 98% | pest or weed control at 31 g/ha ([20]; 31 g ai/ha): 95% | pest or weed control at 62 g/ha ([20]; 62 g ai/ha): 100% | pest or weed control at 125 g/ha ([20]; 125 g ai/ha): 100% | pest or weed control at 31 g/ha ([21]; 31 g ai/ha): 100% | pest or weed control at 62 g/ha ([21]; 62 g ai/ha): 100% | pest or weed control at 125 g/ha ([21]; 125 g ai/ha): 100% | plant injury at 31 g/ha ([22]; 31 g ai/ha): 0% | plant injury at 62 g/ha ([22]; 62 g ai/ha): 45% | plant injury at 125 g/ha ([22]; 125 g ai/ha): 40% | plant injury at 250 g/ha ([22]; 250 g ai/ha): 85%
